Measurements as given in patent publication US5593984A, “Cephalosporin derivatives” (Yuhan Corporation, priority 1992, dated 1997).
≈ marks a conversion by molar mass, not a printed value.

Key:
Format in all cases: cell-based
B. subtilis ATCC 6633 = test: MIC by agar dilution, B. subtilis ATCC 6633; settings: Bacillus subtilis, ATCC6633, 17 h; B. subtilis ATCC 6633; agar dilution, Mueller-Hinton agar; read-out: Minimal Inhibitory Concentration (MIC)
Outline: (§1)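 Medium: Mueller-Hinton agar with compound in doubling dilutions. Inoculum: 10^6 CFU/ml. Incubation: 35°-37° C. for 17±1 hours.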

Staph. aureus ATCC 6538P = test: MIC by agar dilution, Staph. aureus ATCC 6538P; settings: Staphylococcus aureus, ATCC6538P, 17 h; Staph. aureus ATCC 6538P; agar dilution, Mueller-Hinton agar; read-out: Minimal Inhibitory Concentration (MIC)
Outline: as §1

Staph. aureus Smith = test: MIC by agar dilution, Staph. aureus Smith; settings: Staphylococcus aureus, 17 h, Mueller-Hinton agar, read-out: Minimal Inhibitory Concentration (MIC)
Outline: as §1

Staph. aureus C-57 = test: MIC by agar dilution, Staph. aureus C-57; settings: Staphylococcus aureus, C57, 17 h, Mueller-Hinton agar, read-out: Minimal Inhibitory Concentration (MIC)
Outline: as §1

Staph. aureus C-5113 = test: MIC by agar dilution, Staph. aureus C-5113; settings: Staphylococcus aureus, C5113, 17 h, Mueller-Hinton agar, read-out: Minimal Inhibitory Concentration (MIC)
Outline: as §1

Staph. aureus C-5216 = test: MIC by agar dilution, Staph. aureus C-5216; settings: Staphylococcus aureus, C5216, 17 h, Mueller-Hinton agar, read-out: Minimal Inhibitory Concentration (MIC)
Outline: as §1

[1] = test system: S. epidermidis ATCC 12228; test: MIC by agar dilution, S. epidermidis ATCC 12228; settings: Staphylococcus epidermidis, ATCC12228, 17 h; S. epidermidis ATCC 12228; agar dilution, Mueller-Hinton agar; read-out: Minimal Inhibitory Concentration (MIC)
Outline: as §1

Ent. aerogenes IFO 12979 = test: MIC by agar dilution, Ent. aerogenes IFO 12979; settings: Klebsiella aerogenes, IFO12979, 17 h, Mueller-Hinton agar, read-out: Minimal Inhibitory Concentration (MIC)
Outline: as §1

Ent. cloacae IFO 13535 = test: MIC by agar dilution, Ent. cloacae IFO 13535; settings: Enterobacter cloacae, IFO13535, 17 h; Ent. cloacae IFO 13535; agar dilution, Mueller-Hinton agar; read-out: Minimal Inhibitory Concentration (MIC)
Outline: as §1

E. coli NIHJ JC-2 = test: MIC by agar dilution, E. coli NIHJ JC-2; settings: Escherichia coli, NIHJJC2, 17 h; E. coli NIHJ JC-2; agar dilution, Mueller-Hinton agar; read-out: Minimal Inhibitory Concentration (MIC)
Outline: as §1

E. coli No. 29 = test: MIC by agar dilution, E. coli No. 29; settings: Escherichia coli, 17 h; E. coli No. 29; agar dilution, Mueller-Hinton agar; read-out: Minimal Inhibitory Concentration (MIC)
Outline: as §1

E. coli DY-1 = test: MIC by agar dilution, E. coli DY-1; settings: Escherichia coli, DY1, 17 h; E. coli DY-1; agar dilution, Mueller-Hinton agar; read-out: Minimal Inhibitory Concentration (MIC)
Outline: as §1

K. pneumoniae NCTC 9632 = test: MIC by agar dilution, K. pneumoniae NCTC 9632; settings: Klebsiella pneumoniae, NCTC9632, 17 h; K. pneumoniae NCTC 9632; agar dilution, Mueller-Hinton agar; read-out: Minimal Inhibitory Concentration (MIC)
Outline: as §1

M. morganii DY-1 = test: MIC by agar dilution, M. morganii DY-1; settings: Morganella morganii, DY1, 17 h; M. morganii DY-1; agar dilution, Mueller-Hinton agar; read-out: Minimal Inhibitory Concentration (MIC)
Outline: as §1

[2] = test system: Ps. aeruginosa ATCC 10145; test: MIC by agar dilution, Ps. aeruginosa ATCC 10145; settings: Pseudomonas aeruginosa, ATCC10145, 17 h, Mueller-Hinton agar, read-out: Minimal Inhibitory Concentration (MIC)
Outline: as §1

[3] = test system: Ps. aeruginosa NCTC 10490; test: MIC by agar dilution, Ps. aeruginosa NCTC 10490; settings: Pseudomonas aeruginosa, NCTC10490, 17 h, Mueller-Hinton agar, read-out: Minimal Inhibitory Concentration (MIC)
Outline: as §1

Ps. aeruginosa DY-2 = test: MIC by agar dilution, Ps. aeruginosa DY-2; settings: Pseudomonas aeruginosa, DY2, 17 h; Ps. aeruginosa DY-2; agar dilution, Mueller-Hinton agar; read-out: Minimal Inhibitory Concentration (MIC)
Outline: as §1

P. vulgaris NCTC 8313 = test: MIC by agar dilution, P. vulgaris NCTC 8313; settings: Proteus vulgaris, NCTC8313, 17 h; P. vulgaris NCTC 8313; agar dilution, Mueller-Hinton agar; read-out: Minimal Inhibitory Concentration (MIC)
Outline: as §1

Prov. stuartii IFO 12930 = test: MIC by agar dilution, Prov. stuartii IFO 12930; settings: Providencia stuartii, IFO12930, 17 h, Mueller-Hinton agar, read-out: Minimal Inhibitory Concentration (MIC)
Outline: as §1

[4] = test system: Ser. marcescens IFO 12648; test: MIC by agar dilution, Ser. marcescens IFO 12648; settings: Serratia marcescens, IFO12648, 17 h; Ser. marcescens IFO 12648; agar dilution, Mueller-Hinton agar; read-out: Minimal Inhibitory Concentration (MIC)
Outline: as §1

| MIC (B. subtilis ATCC 6633) | MIC (Staph. aureus ATCC 6538P) | MIC (Staph. aureus Smith) | MIC (Staph. aureus C-57) | MIC (Staph. aureus C-5113) | MIC (Staph. aureus C-5216) | MIC [1] | MIC (Ent. aerogenes IFO 12979) | MIC (Ent. cloacae IFO 13535) | MIC (E. coli NIHJ JC-2) | MIC (E. coli No. 29) | MIC (E. coli DY-1) | MIC (K. pneumoniae NCTC 9632) | MIC (M. morganii DY-1) | MIC [2] | MIC [3] | MIC (Ps. aeruginosa DY-2) | MIC (P. vulgaris NCTC 8313) | MIC (Prov. stuartii IFO 12930) | MIC [4] | Structure (SMILES) |
| --- | --- | --- | --- | --- | --- | --- | --- | --- | --- | --- | --- | --- | --- | --- | --- | --- | --- | --- | --- | --- |
| 0.2 µg/mL (≈ 0.36 µM) | 0.2 µg/mL (≈ 0.36 µM) | 0.39 µg/mL (≈ 0.702 µM) | 12.5 µg/mL (≈ 22.5 µM) | 1.56 µg/mL (≈ 2.81 µM) | 1.56 µg/mL (≈ 2.81 µM) | 0.1 µg/mL (≈ 0.18 µM) | 0.025 µg/mL (≈ 0.045 µM) | 0.2 µg/mL (≈ 0.36 µM) | 0.05 µg/mL (≈ 0.09 µM) | ≤ 0.006 µg/mL | ≤ 0.006 µg/mL | 0.05 µg/mL (≈ 0.09 µM) | 0.05 µg/mL (≈ 0.09 µM) | 3.13 µg/mL (≈ 5.63 µM) | 0.78 µg/mL (≈ 1.4 µM) | 3.13 µg/mL (≈ 5.63 µM) | 0.012 µg/mL (≈ 0.0216 µM) | 0.05 µg/mL (≈ 0.09 µM) | 0.05 µg/mL (≈ 0.09 µM) | CCO/N=C(\C(=O)N[C@@H]1C(=O)N2C(C(=O)[O-])=C(C[n+]3cc(CC)n4cccc4c3)CS[C@H]12)c1csc(N)n1 [Ex. 38, 7-β-[(Z)-2-(2-aminothiazol-4-yl)-2-ethoxyiminoacetamido]-3-(4-ethylpyrrolo[1,2-a]pyrazinium-2-yl)methyl-3-cephem-4-carboxylate] |
| 0.1 µg/mL (≈ 0.178 µM) | 0.2 µg/mL (≈ 0.356 µM) | 0.78 µg/mL (≈ 1.39 µM) | 25 µg/mL (≈ 44.5 µM) | 3.13 µg/mL (≈ 5.57 µM) | 1.56 µg/mL (≈ 2.78 µM) | 0.1 µg/mL (≈ 0.178 µM) | 0.025 µg/mL (≈ 0.0445 µM) | 0.1 µg/mL (≈ 0.178 µM) | ≤ 0.006 µg/mL | ≤ 0.006 µg/mL | ≤ 0.006 µg/mL | 0.025 µg/mL (≈ 0.0445 µM) | 0.025 µg/mL (≈ 0.0445 µM) | 0.78 µg/mL (≈ 1.39 µM) | 0.2 µg/mL (≈ 0.356 µM) | 3.13 µg/mL (≈ 5.57 µM) | 0.012 µg/mL (≈ 0.0214 µM) | 0.012 µg/mL (≈ 0.0214 µM) | 0.05 µg/mL (≈ 0.089 µM) | Nc1nc(/C(=N/OCF)C(=O)N[C@@H]2C(=O)N3C(C(=O)[O-])=C(C[n+]4ccn5ccc(CO)c5c4)CS[C@H]23)cs1 [Ex. 32, 7-β-[(Z)-2-(2-aminothiazol-4-yl)2-fluoromethoxyiminoacetamido]-3-(8-hydroxymethylpyrrolo[1,2-a]pyrazinium-2-yl)methyl-3-cephem-4-carboxylate] |
| 0.2 µg/mL (≈ 0.356 µM) | 0.05 µg/mL (≈ 0.089 µM) | 0.39 µg/mL (≈ 0.694 µM) | 3.13 µg/mL (≈ 5.57 µM) | 0.78 µg/mL (≈ 1.39 µM) | 0.78 µg/mL (≈ 1.39 µM) | 0.1 µg/mL (≈ 0.178 µM) | 0.1 µg/mL (≈ 0.178 µM) | 0.78 µg/mL (≈ 1.39 µM) | 0.2 µg/mL (≈ 0.356 µM) | 0.05 µg/mL (≈ 0.089 µM) | 0.05 µg/mL (≈ 0.089 µM) | 0.1 µg/mL (≈ 0.178 µM) | 0.39 µg/mL (≈ 0.694 µM) | 1.56 µg/mL (≈ 2.78 µM) | 0.78 µg/mL (≈ 1.39 µM) | 3.13 µg/mL (≈ 5.57 µM) | 0.012 µg/mL (≈ 0.0214 µM) | 0.012 µg/mL (≈ 0.0214 µM) | 0.2 µg/mL (≈ 0.356 µM) | CO/N=C(\C(=O)N[C@@H]1C(=O)N2C(C(=O)[O-])=C(C[n+]3ccn4cccc4c3C)CS[C@H]12)c1nc(N)sc1Cl [Ex. 56, 7-β-[(Z)-2-(2-amino-5-chlorothiazol-4-yl)-2-methoxyiminoacetamido]-3-(1-methylpyrrolo[1,2-a]-pyrazinium-2-yl)methyl-3-cephem-4-carboxylate] |
| 0.78 µg/mL (≈ 1.45 µM) | 0.2 µg/mL (≈ 0.372 µM) | 0.39 µg/mL (≈ 0.725 µM) | 25 µg/mL (≈ 46.5 µM) | 0.39 µg/mL (≈ 0.725 µM) | 0.78 µg/mL (≈ 1.45 µM) | 0.1 µg/mL (≈ 0.186 µM) | 0.012 µg/mL (≈ 0.0223 µM) | 0.78 µg/mL (≈ 1.45 µM) | 0.39 µg/mL (≈ 0.725 µM) | 0.012 µg/mL (≈ 0.0223 µM) | ≤ 0.006 µg/mL | 0.05 µg/mL (≈ 0.093 µM) | 0.05 µg/mL (≈ 0.093 µM) | 1.56 µg/mL (≈ 2.9 µM) | 0.78 µg/mL (≈ 1.45 µM) | 6.25 µg/mL (≈ 11.6 µM) | 0.012 µg/mL (≈ 0.0223 µM) | 0.05 µg/mL (≈ 0.093 µM) | 0.1 µg/mL (≈ 0.186 µM) | C#CCON=C(C(=O)NC1C(=O)N2C(C(=O)[O-])=C(C[n+]3ccn4cccc4c3)CSC12)c1csc(N)n1 (stereo not drawn) [Ex. 4, 7-β-[(Z)-2-(2-aminothiazol-4-yl)-2-(propyn-1-oxyimino)acetamido]-3-(pyrrolo[1,2-a]pyrazinium-2-yl)methyl-3-cephem-4-carboxylate] |
